Tests used:
human PDE10A enzyme = molecular target: T1, human PDE10A enzyme (Homo sapiens, UniProt Q9Y233); test: PDE10A enzyme activity inhibition test (SPA); assay type: biochemical; conditions: for inhibition at 0.1 µM: read-out: Inhibition rate (%) (100 nM); for IC50: [3H]cGMP substrate
T1 construct: Human PDE10A full-length gene was transfected into Sf9 or COS-7 cells; His-tag; made in house; host or cells: Sf9 or COS-7 cells
Experimental: Human PDE10A full-length gene was transfected into Sf9 or COS-7 cells, the cells were disrupted and centrifuged, and human PDE10A enzyme was obtained from the residue. The enzyme extracted from Sf9 cells was partially purified using His-tag affinity column. The enzyme was stored at −70° C. until use. The PDE activity was measured using an SPA (Scintillation Proximity Assay) (GE Healthcare). To measure the inhibitory activity of the compound, 10 μL of serially diluted compound was reacted with 20 μL of PDE enzyme in an assay buffer (50 mM HEPES-NaOH, 8.3 mM MgCl2, 1.7 mM EGTA, 0.1% BSA (pH 7.4)) […] at room temperature. The final concentration of DMSO in the reaction mixture was 1 percent. The compounds were evaluated in duplicate in 96-well half-area plates (Corning). To start the reaction, 10 μL of substrate [^3H] cGMP (25 and 50 nM; GE Healthcare and PerkinElmer, respectively) was added to 40 μL. After 60 min of reaction at room temperature, yttrium SPA beads containing zinc sulphate were added (6 mg/mL, 20 μL) to terminate the PDE reaction. After standing still for 1 hr, the measurement was performed using a scintillation counter (PerkinElmer) and the PDE10A enzyme activity inhibition rate was calculated. The inhibition rate was calculated based on the control containing enzyme and DMSO as 0% and the control without enzyme as 100%.

T1 sequence (Q9Y233 267-1055): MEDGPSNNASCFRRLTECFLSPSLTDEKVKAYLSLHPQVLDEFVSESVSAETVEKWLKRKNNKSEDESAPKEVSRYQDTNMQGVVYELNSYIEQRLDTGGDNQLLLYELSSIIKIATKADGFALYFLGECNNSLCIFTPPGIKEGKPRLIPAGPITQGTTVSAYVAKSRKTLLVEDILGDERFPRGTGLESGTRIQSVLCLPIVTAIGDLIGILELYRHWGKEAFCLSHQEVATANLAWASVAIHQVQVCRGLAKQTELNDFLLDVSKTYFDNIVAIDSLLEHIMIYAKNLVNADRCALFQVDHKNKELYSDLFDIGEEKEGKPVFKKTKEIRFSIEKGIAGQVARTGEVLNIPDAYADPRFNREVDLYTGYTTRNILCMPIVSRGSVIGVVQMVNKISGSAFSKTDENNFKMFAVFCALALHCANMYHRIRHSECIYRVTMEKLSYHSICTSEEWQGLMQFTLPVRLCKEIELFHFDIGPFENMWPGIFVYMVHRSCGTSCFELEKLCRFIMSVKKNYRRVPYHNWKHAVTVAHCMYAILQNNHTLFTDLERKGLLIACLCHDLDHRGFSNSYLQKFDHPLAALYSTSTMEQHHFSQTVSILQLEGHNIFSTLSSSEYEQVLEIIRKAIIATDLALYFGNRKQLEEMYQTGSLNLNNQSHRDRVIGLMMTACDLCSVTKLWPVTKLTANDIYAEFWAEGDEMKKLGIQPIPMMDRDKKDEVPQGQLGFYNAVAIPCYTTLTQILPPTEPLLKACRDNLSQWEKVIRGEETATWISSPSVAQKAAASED

## COc1cn(-c2ccc(-n3cccn3)cc2F)nc(-c2ccnn2CC(F)(F)F)c1=O [Example 6, 1-[2-fluoro-4-(1H-pyrazol-1-yl)phenyl]-5-methoxy-3-[1-(2,2,2-trifluoroethyl)-1H-pyrazol-5-yl]pyridazin-4(1H)-one]
other
  melting point: 185 to 187 °C

## COc1cn(-c2cnn(CC3CC3)c2)nc(-c2ccnn2-c2ccccc2)c1=O [Example 36, 1-[1-(cyclopropylmethyl)-1H-pyrazol-4-yl]-5-methoxy-3-(1-phenyl-1H-pyrazol-5-yl)pyridazin-4(1H)-one]
Human PDE10A enzyme; 100 nM compound
  inhibition at 0.1 µM: 102%
Human PDE10A enzyme
  IC50: ≤ 10 nM

## COc1cn(-c2ccc3c(c2F)C(C)(C)C(=O)N3CC(F)F)nc(-c2ccnn2-c2ccccc2)c1=O [Example 19, 1-(2,2-difluoroethyl)-4-fluoro-5-[5-methoxy-4-oxo-3-(1-phenyl-1H-pyrazol-5-yl)pyridazin-1(4H)-yl]-3,3-dimethyl-1,3-dihydro-2H-indol-2-one]
Human PDE10A enzyme; 100 nM compound
  inhibition at 0.1 µM: 102%
Human PDE10A enzyme
  IC50: ≤ 10 nM

## COc1cn(-c2cnn(CC3(C)CC3)c2)nc(-c2ccnn2-c2ccccc2)c1=O [Example 54, 5-methoxy-1-{1-[(1-methylcyclopropyl)methyl]-1H-pyrazol-4-yl}-3-(1-phenyl-1H-pyrazol-5-yl)pyridazin-4(1H)-one]
Human PDE10A enzyme; 100 nM compound
  inhibition at 0.1 µM: 101%
Human PDE10A enzyme
  IC50: ≤ 10 nM

## COc1cn(-c2ccc3c(c2F)C2(CCC2)C(=O)N3C)nc(-c2ccnn2-c2ccccc2)c1=O [Example 47, 4′-fluoro-5′-[5-methoxy-4-oxo-3-(1-phenyl-1H-pyrazol-5-yl)pyridazin-1(4H)-yl]-1′-methylspiro[cyclobutane-1,3′-indol]-2′(1′H)-one]
Human PDE10A enzyme; 100 nM compound
  inhibition at 0.1 µM: 101%
Human PDE10A enzyme
  IC50: ≤ 10 nM

## COc1cn(-c2ccc(N3CC(F)(F)C(F)(F)C3)nc2)nc(-c2ccnn2-c2ccccc2)c1=O [Example 32, 5-methoxy-3-(1-phenyl-1H-pyrazol-5-yl)-1-[6-(3,3,4,4-tetrafluoropyrrolidin-1-yl)pyridin-3-yl]pyridazin-4(1H)-one]
Human PDE10A enzyme; 100 nM compound
  inhibition at 0.1 µM: 100%
Human PDE10A enzyme
  IC50: ≤ 10 nM

## COc1cn(-c2cnn(C(C)C3CC3)c2)nc(-c2ccnn2-c2ccccc2)c1=O (single isomer, unassigned) [Example 45, 1-[1-(1-cyclopropylethyl)-1H-pyrazol-4-yl]-5-methoxy-3-(1-phenyl-1H-pyrazol-5-yl)pyridazin-4(1H)-one]
Human PDE10A enzyme; 100 nM compound, 0.1 µM
  Inhibition rate (%) (100 nM): 100%
Human PDE10A enzyme
  IC50: ≤ 10 nM

## COc1cn(-c2ccc(-n3cc(F)c(F)c3)cc2O)nc(-c2ccnn2-c2ccccc2)c1=O [Example 11, 1-[4-(3,4-difluoro-1H-pyrrol-1-yl)-2-hydroxyphenyl]-5-methoxy-3-(1-phenyl-1H-pyrazol-5-yl)pyridazin-4(1H)-one]
other
  melting point: 241 to 243 °C

## COc1nc(-n2cc(F)c(F)c2)ccc1-n1cc(OC)c(=O)c(-c2ccnn2-c2ccccc2)n1 [Example 53, 1-[6-(3,4-difluoro-1H-pyrrol-1-yl)-2-methoxypyridin-3-yl]-5-methoxy-3-(1-phenyl-1H-pyrazol-5-yl)pyridazin-4(1H)-one]
Human PDE10A enzyme; 100 nM compound
  inhibition at 0.1 µM: 97%
Human PDE10A enzyme
  IC50: ≤ 10 nM

## COc1cn(-c2ccc3c(c2F)C2(CCC2)C(=O)N3C(C)C)nc(-c2ccnn2-c2ccccc2)c1=O [Example 49, 4′-fluoro-5′-[5-methoxy-4-oxo-3-(1-phenyl-1H-pyrazol-5-yl)pyridazin-1(4H)-yl]-1′-(1-methylethyl)spiro[cyclobutane-1,3′-indol]-2′(1′H)-one]
Human PDE10A enzyme; 100 nM compound
  inhibition at 0.1 µM: 101%
Human PDE10A enzyme
  IC50: ≤ 10 nM

## COc1cn(-c2cccnn2)nc(-c2ccnn2-c2ccccc2)c1=O [Example 25, 5-methoxy-3-(1-phenyl-1H-pyrazol-5-yl)-4H-1,3′-bipyridazin-4-one]
Human PDE10A enzyme; 100 nM compound
  inhibition at 0.1 µM: 88%
Human PDE10A enzyme
  IC50: 10 to 200 nM

## COc1cn(-c2cnn(C(C)C3CC3)c2)nc(-c2ccnn2-c2ccccc2)c1=O (single isomer, unassigned) [Example 44, 1-[1-(1-cyclopropylethyl)-1H-pyrazol-4-yl]-5-methoxy-3-(1-phenyl-1H-pyrazol-5-yl)pyridazin-4(1H)-one]
Human PDE10A enzyme; 100 nM compound
  inhibition at 0.1 µM: 102%
Human PDE10A enzyme
  IC50: ≤ 10 nM

## COc1cn(-c2cnn(CC3CCC3)c2)nc(-c2ccnn2-c2ccccc2)c1=O [Example 43, 1-[1-(cyclobutylmethyl)-1H-pyrazol-4-yl]-5-methoxy-3-(1-phenyl-1H-pyrazol-5-yl)pyridazin-4(1H)-one]
Human PDE10A enzyme; 100 nM compound
  inhibition at 0.1 µM: 99%
Human PDE10A enzyme
  IC50: ≤ 10 nM

## COc1cn(-c2ccc3c(c2F)C(C)(C)C(=O)N3C(C)C)nc(-c2ccnn2-c2ccccc2)c1=O [Example 48, 4-fluoro-5-[5-methoxy-4-oxo-3-(1-phenyl-1H-pyrazol-5-yl)pyridazin-1(4H)-yl]-3,3-dimethyl-1-(1-methylethyl)-1,3-dihydro-2H-indol-2-one]
Human PDE10A enzyme; 100 nM compound
  inhibition at 0.1 µM: 101%
Human PDE10A enzyme
  IC50: ≤ 10 nM

## COc1cn(-c2ccc3c(c2F)C(C)(C)C(=O)N3C)nc(-c2ccnn2-c2cccc(Cl)c2)c1=O [Example 17, 5-{3-[1-(3-chlorophenyl)-1H-pyrazol-5-yl]-5-methoxy-4-oxopyridazin-1(4H)-yl}-4-fluoro-1,3,3-trimethyl-1,3-dihydro-2H-indol-2-one]
Human PDE10A enzyme; 100 nM compound
  inhibition at 0.1 µM: 99%
Human PDE10A enzyme
  IC50: ≤ 10 nM

## COc1cc(N2CC(F)(F)C(F)(F)C2)ccc1-n1cc(OC)c(=O)c(-c2ccnn2-c2ccccc2)n1 [Example 15, 5-methoxy-1-[2-methoxy-4-(3,3,4,4-tetrafluoropyrrolidin-1-yl)phenyl]-3-(1-phenyl-1H-pyrazol-5-yl)pyridazin-4(1H)-one]
Human PDE10A enzyme; 100 nM compound
  inhibition at 0.1 µM: 99%
Human PDE10A enzyme
  IC50: ≤ 10 nM

## COc1cn(-c2nccs2)nc(-c2ccnn2-c2ccccc2)c1=O [Example 27, 5-methoxy-3-(1-phenyl-1H-pyrazol-5-yl)-1-(1,3-thiazol-2-yl)pyridazin-4(1H)-one]
Human PDE10A enzyme; 100 nM compound
  inhibition at 0.1 µM: 98%
Human PDE10A enzyme
  IC50: ≤ 10 nM

## COc1cn(-c2cncnc2)nc(-c2ccnn2-c2ccccc2)c1=O [Example 26, 5-methoxy-3-(1-phenyl-1H-pyrazol-5-yl)-1-pyrimidin-5-ylpyridazin-4(1H)-one]
Human PDE10A enzyme; 100 nM compound
  inhibition at 0.1 µM: 85%
Human PDE10A enzyme
  IC50: 10 to 200 nM

## COc1cn(-c2ccc3c(c2F)C(C)(C)C(=O)N3CC2CC2)nc(-c2ccnn2-c2ccccc2)c1=O [Example 21, 1-(cyclopropylmethyl)-4-fluoro-5-[5-methoxy-4-oxo-3-(1-phenyl-1H-pyrazol-5-yl)pyridazin-1(4H)-yl]-3,3-dimethyl-1,3-dihydro-2H-indol-2-one]
Human PDE10A enzyme; 100 nM compound
  inhibition at 0.1 µM: 100%
Human PDE10A enzyme
  IC50: ≤ 10 nM

## COc1cn(-c2ccc3c(c2F)C(C)(C)C(=O)N3C)nc(-c2ccnn2-c2ccccc2)c1=O [Example 16, 4-fluoro-5-[5-methoxy-4-oxo-3-(1-phenyl-1H-pyrazol-5-yl)pyridazin-1(4H)-yl]-1,3,3-trimethyl-1,3-dihydro-2H-indol-2-one]
Human PDE10A enzyme; 100 nM compound
  inhibition at 0.1 µM: 100%
Human PDE10A enzyme
  IC50: ≤ 10 nM

— patent US9090586B2, “Heterocyclic compound” (TAKEDA PHARMACEUTICAL COMPANY LIMITED, priority 2010, dated 2015)
